In publication PMC11618496, “SHIV remission in macaques with early treatment initiation and ultra long-lasting antiviral activity” (Nature Communications, 2024):
“And” between values parts separate entries of the source, which are not always exact repeats. Equal values may be shown once. One block for each compound: values may come before it.

Experiments:
[1] = Drug concentrations in cerebrospinal fluid (CSF); format: in vivo, Rhesus macaques; conditions: for Kp at 4 weeks: CSF and plasma, read-out: CSF-to-plasma ratio; for concentration at 4 weeks: CSF
Description: (§1) A cocktail of methanol containing internal standards was added to precipitate proteins. After a brief centrifugation and removal of protein precipitates, the supernatant was evaporated to near dryness and re-suspended with mobile phase A. An aqueous-acetonitrile mobile-phase gradient was used to elute the drugs from a C18 column (100*1 mm, Imtakt) and into the analyzer. Drug concentrations were calculated from a standard curve with a range of 0.5–2000 ng/mL using Analyst software. […] Plasma concentrations of CAB were measured weekly. Plasma concentrations of RPV were measured 4 (9 observations), 2 (2 observations), or 3 (2 observations) weeks after the previous injection. The concentrations of RPV in plasma, CSF, and tissues and the concentrations of CAB in CSF were measured at the Clinical Pharmacology and Analytical Chemistry (CPAC) Laboratory, University of North Carolina Center for AIDS Research. The LOQ for RPV in plasma is 1 ng/mL.

[2] = Extracellular TFV, FTC, CAB and RPV in rectal tissue homogenates; format: in vivo, Rhesus macaques; conditions: collected after 1 to 3 months of ART
Description: as §1

[3] = for median concentration in PBMCs during the entire treatment period: eART + VES group; for median (range) concentration in PBMCs, period of full adherence / median (range) concentration in PBMCs, period of suboptimal adherence: eART group; for median (range) concentration in PBMCs, period of full adherence: months 0–3.5, 24 h post-dosing, oral FTC/TAF; for median (range) concentration in PBMCs, period of suboptimal adherence: months 3.5 to 6
Description: (§2) RT-SHIV was selected for the study since it contains the HIVHXBc2 RT that is sensitive to RPV. RT-SHIV was obtained through the NIH AIDS Reagent Program, Division of AIDS, NIAID, NIH[17]–[19]. The stock was maintained in liquid nitrogen in individual 1 mL aliquots until use. […] CAB LA and RPV LA were obtained from ViiV Healthcare and Janssen, respectively. […] CAB LA (50 mg/kg) and RPV LA (200 mg/kg) were given intramuscularly once a month[27],[45]. The macaque used in the terminal PK study received CAB LA (50 mg/kg) and RPV LA (200 mg/kg) from Cabenuva®.
(§3) PBMCs were isolated from blood collected in BD Vacutainer® CPT™ Sodium Citrate Cell Preparation Tubes, and red blood cells were lysed with BioLegend RBC lysis buffer. Cell counts and viability were determined using a Guava Cell Counter and Cytosoft data acquisition and analysis software (version 6.02; Millipore Billerica, MA) or a Countess (Invitrogen). Three million viable cells were pelleted, washed with 1 mL of physiological saline, and resuspended in 500 µl ice-cold 80% methanol. Samples were vortexed for 1 min and immediately frozen at − 70 °C. Prior to analysis, cellular debris was pelleted, and supernatants were transferred to new tubes. Supernatants were dried down and reconstituted in 100 μl of 50 mM ammonium acetate buffer (pH 7.0), then centrifuged at 17,000 × g to remove insoluble particulates. […] Calibration curves were generated from serially diluted standards over the range from 0.25 to 10 nM.

reverse transcriptase = conditions: Rectal
Description: as §3

[4] = rhesus monkey, in vivo
[5] = cited from earlier work; for median trough concentration in human PBMCs: reviewer comment, 25mg TAF dose ref 12
[6] = CAB and RPV concentrations in macaque plasma; format: in vivo, Rhesus macaques; conditions: for median plasma levels during the treatment phase: macaques, monthly IM CAB LA 50 mg/kg and RPV LA 200 mg/kg; for plasma concentration, individual macaques: matched to CSF samples; for concentration at 4 weeks: matched to CSF: ~ 6 months of treatment, 4 weeks after the previous CAB LA/RPV LA injection, read-out: Plasma, median (range)
Description: Plasma concentrations of CAB were measured weekly.

[7] = no reference given; cited from earlier work
[8] = design: method as in Letendre; conditions: 7-10 days after injection ref Letendre; cited from earlier work
[9] = no reference given; cited from earlier work; remark: listed apart in the source
[10] = cited from earlier work; for plasma levels in humans: 400 mg of CAB LA or 600 mg of RPV LA every month for 48 weeks ref 21; for apparent terminal elimination half-life: humans, single intramuscular injection ref 16
in vivo = conditions: female, rhesus monkey
Description: as §2, §1

[11] = Intracellular TFV-DP and FTC-TP in lymph node mononuclear cells and rectal tissues; conditions: lymph node mononuclear cells from axillary or inguinal lymph nodes
[12] = ~ 6 months of treatment, 4 weeks after the previous CAB LA/RPV LA injection
[13] = rhesus monkey, plasma, intramuscular
[14] = rhesus monkey, intramuscular, 4 weeks after dosing (author rebuttal), read-out: macaque CSF values, approximate
[15] = rhesus monkey, other: oral (FTC) and intramuscular (CAB LA), ~ 6 months of treatment, 4 weeks after the previous CAB LA/RPV LA injection, read-out: CSF, median (range)
[16] = Tissue concentration, Axillary lymph nodes
[17] = Tissue concentration, Basal ganglia
[18] = Tissue concentration, Cerebellum
[19] = Tissue concentration, Cervical lymph nodes
[20] = Tissue concentration, Iliac lymph nodes
[21] = Tissue concentration, Inguinal lymph nodes
[22] = Tissue concentration, Mesenteric lymph nodes
[23] = Tissue concentration, Spinal cord
[24] = median concentration in brain tissues
[25] = median concentration in lymphoid tissues
[26] = median concentration in the GI tract

CSF, median (range) [1, 12]: not detected and BLQ
Rectal tissues, extracellular drug, median (range) [2]: 0.64 (0.18–0.87) ng/mg of tissue
SMILES: C[C@H](Cn1cnc2c(N)ncnc21)OCP(=O)(O)O [TFV, tenofovir]

SMILES: Nc1nc(=O)n([C@@H]2CS[C@H](COP(=O)(O)OP(=O)(O)OP(=O)(O)O)O2)cc1F [FTC-TP, emtricitabine triphosphate]
median concentration in PBMCs during the entire treatment period [3]: 553 fmols/10^6 PBMCs
median (range) concentration in PBMCs, period of full adherence [3]: 573 (333–1528) fmols/10^6 PBMCs
median (range) concentration in PBMCs, period of suboptimal adherence [3]: 306 (undetectable-964) fmols/10^6 PBMCs
fold lower in PBMCs than in humans ([3]; full adherence vs humans treated with 300 mg of FTC): approximately 3.6
Panel F ratio dCTP/FTC-TP (reverse transcriptase): 82.22 and 103.48
Rectal tissues, intracellular, median (range) [4]: BLQ (BLQ-17)
concentration in human PBMCs ([5]; humans treated with 25 mg of TAF (TFV-DP) or 300 mg of FTC (FTC-TP) ref 12): 2,060 fmols/10^6 PBMCs
median peak concentration in human PBMCs ([5]; reviewer comment ref 12): 5149 fmol/10^6 cells
median trough concentration in human PBMCs [5]: 2060 fmol/10^6 cells

SMILES: Cc1cc(/C=C/C#N)cc(C)c1Nc1ccnc(Nc2ccc(C#N)cc2)n1 [RPV, rilpivirine]
median plasma levels during the treatment phase [6]: 108 ng/mL
plasma concentration, individual macaques [6]: 143 ng/mL and 152 ng/mL and 150 ng/mL and 153 ng/mL
persistence in plasma after the last dose [6, 13]: 2 years
concentration at 4 weeks [6, 13]: 151 ng/mL
protein-adjusted 90% inhibitory concentration (PA-IC90) [7]: 12 ng/mL
Kp at 4 weeks ([1]; rhesus monkey, intramuscular): 0.028
concentration at 4 weeks [1, 14]: ~4 ng/mL
concentration at 4 weeks [1, 15]: 4.06 ng/mL
times CSF-to-plasma ratio higher than for CAB ([1]; rhesus monkey, in vivo): 4
CSF, median (range) [1, 12]: 4.06 (2.93–4.52) ng/mL
human CSF levels [8]: ~ 2 ng/ml
Rectal tissues, extracellular drug, median (range) [2]: 0.45 (0.12–1.1) ng/mg of tissue
in vitro EC90 [9]: 0.66 ng/mL
plasma levels in humans [10]: 97.5 ng/mL
apparent terminal elimination half-life [10]: 91 to 196 days
times brain tissue concentration above the in vitro EC90 (in vivo; 3 weeks): ~ 500
times median brain tissue concentration higher than that of CAB (in vivo; 3 weeks): 5.8
concentration at 3 weeks (in vivo; [16]): 773 ng/g
concentration at 3 weeks (in vivo; [17]): 340 ng/g
concentration at 3 weeks (in vivo; Tissue concentration, Cecum): 670 ng/g
concentration at 3 weeks (in vivo; [18]): 259 ng/g
concentration at 3 weeks (in vivo; [19]): 1770 ng/g
concentration at 3 weeks (in vivo; Tissue concentration, Duodenum): 666 ng/g
concentration at 3 weeks (in vivo; Tissue concentration, Ileum): 518 ng/g
concentration at 3 weeks (in vivo; [20]): 736 ng/g
concentration at 3 weeks (in vivo; [21]): 692 ng/g
concentration at 3 weeks (in vivo; Tissue concentration, Jejunum): 697 ng/g
concentration at 3 weeks (in vivo; [22]): 28800 ng/g
concentration at 3 weeks (in vivo; Tissue concentration, Rectum): 447 ng/g
concentration at 3 weeks (in vivo; [23]): 437 ng/g
concentration at 3 weeks (in vivo; [24]): 340 ng/g
concentration at 3 weeks (in vivo; [25]): 773 ng/g
concentration at 3 weeks (in vivo; [26]): 666 ng/g

SMILES: CC(C)OC(=O)[C@H](C)N[P@](=O)(CO[C@H](C)Cn1cnc2c(N)ncnc21)Oc1ccccc1 [TAF, tenofovir alafenamide]
fold higher concentrations of TFV-DP in lymphoid tissues and PBMCs over TDF [5]: ~ 6

SMILES: C[C@H]1CO[C@@H]2Cn3cc(C(=O)NCc4ccc(F)cc4F)c(=O)c(O)c3C(=O)N12 [CAB, cabotegravir]
median plasma levels during the treatment phase [6]: 2400 ng/mL
plasma concentration, individual macaques [6]: 1040 ng/mL and 1050 ng/mL and 630 ng/mL and 480 ng/mL
decline of plasma concentration below the PA-IC90 after the last injection [6, 13]: declined below the PA-IC90 two months later
times plasma level above the PA-IC90 during treatment [6, 13]: 13
concentration at 4 weeks [6, 13]: 835 ng/mL
protein-adjusted 90% inhibitory concentration (PA-IC90) [7]: 166 ng/mL
Kp at 4 weeks ([1]; rhesus monkey, intramuscular): 0.006
concentration at 4 weeks [1, 14]: ~6 ng/mL
concentration at 4 weeks [1, 15]: 5.95 ng/mL
CSF, median (range) [1, 12]: 5.95 (4.77–7.43) ng/mL
human CSF levels [8]: ~10 ng/mL
Rectal tissues, extracellular drug, median (range) [2]: 0.60 (0.25–2.65) ng/mg of tissue
in vitro EC90 [9]: 0.34 ng/mL
plasma levels in humans [10]: 2740 ng/mL
apparent terminal elimination half-life [10]: 39 to 80 days
times brain tissue concentration above the in vitro EC90 (in vivo; 3 weeks): ~ 100
concentration at 3 weeks (in vivo; [16]): 412 ng/g
concentration at 3 weeks (in vivo; [17]): 26 ng/g
concentration at 3 weeks (in vivo; Tissue concentration, Cecum): 1370 ng/g
concentration at 3 weeks (in vivo; [18]): 58 ng/g
concentration at 3 weeks (in vivo; [19]): 583 ng/g
concentration at 3 weeks (in vivo; Tissue concentration, Duodenum): 569 ng/g
concentration at 3 weeks (in vivo; Tissue concentration, Ileum): 695 ng/g
concentration at 3 weeks (in vivo; [20]): 1280 ng/g
concentration at 3 weeks (in vivo; [21]): 975 ng/g
concentration at 3 weeks (in vivo; Tissue concentration, Jejunum): 643 ng/g
concentration at 3 weeks (in vivo; [22]): 23700 ng/g
concentration at 3 weeks (in vivo; Tissue concentration, Rectum): 773 ng/g
concentration at 3 weeks (in vivo; [23]): 288 ng/g
concentration at 3 weeks (in vivo; [24]): 58 ng/g
concentration at 3 weeks (in vivo; [25]): 975 ng/g
concentration at 3 weeks (in vivo; [26]): 695 ng/g

SMILES: CC(Cn1cnc2c(N)ncnc21)OCP(=O)(O)OP(=O)(O)OP(=O)(O)O (stereo in doubt) [TFV-DP, tenofovir diphosphate]
fold higher concentrations in PBMCs and lymphoid tissues than achieved with TDF ([3]; comparison with ref 10): about 10
median concentration in PBMCs during the entire treatment period [3]: 1162 fmols/10^6 PBMCs
median (range) concentration in PBMCs, period of full adherence [3]: 1753 (275–2809) fmols/10^6 PBMCs
median (range) concentration in PBMCs, period of suboptimal adherence [3]: 329 (63–1688) fmols/10^6 PBMCs
times higher in PBMCs than in humans ([3]; full adherence vs humans treated with 25 mg of TAF): about 3.2
Lymph nodes, median (range) [11]: 367 (142–620) fmol/10^6 cells
median trough concentration in human PBMCs [5]: 523 fmol/10^6 cells

concentration at 4 weeks [1, 15]: 2.36 ng/mL
CSF, median (range) [1, 12]: 2.36 (BLQ-2.65) ng/mL
Rectal tissues, extracellular drug, median (range) [2]: 1.48 (0.22–2.16) ng/mg of tissue
SMILES: Nc1nc(=O)n([C@@H]2CS[C@H](CO)O2)cc1F [FTC, emtricitabine]
